# Data taken from ChEMBL document CHEMBL1139939, “Synthesis and biological activity of naphthalene analogues of phenstatins: naphthylphenstatins” (Bioorg Med Chem Lett, 2007).
# pIC50: −log10 of the molar value.
# Columns and labels:
# [1] = tested on: A549; assay: Cytotoxicity against human A549 cells; type: functional, cell-based
# [2] = tested on: HeLa; assay: Cytotoxicity against human HeLa cells; type: functional, cell-based
# [3] = tested on: HT-29; assay: Cytotoxicity against human HT29 cells; type: functional, cell-based
# [4] = target: T1, Tubulin (Homo sapiens) (UniProt P68371+Q9H4B7+P0DPH7+P68366+Q13509+Q71U36+P04350+Q3ZCM7+P07437+P68363+Q9BQE3+Q6PEY2+Q13885+Q9BVA1+Q9BUF5); assay: Inhibition of tubulin polymerization at 20 uM; type: protein-complex assay
# [5] = target: T1, Tubulin (Homo sapiens); assay: Inhibition of tubulin polymerization at 40 uM; type: protein-complex assay
Structure (SMILES),pIC50 [1],pIC50 [2],pIC50 [3],inhibition [4],inhibition [5]
COc1ccc(C(=O)c2ccc3ccccc3c2)c(OC)c1OC,< 5.00,5.77,< 5.00,4%,
COc1cc(C(OC(C)=O)c2ccc3ccccc3c2)cc(OC)c1OC (centres undefined),< 5.00,5.42,< 5.00,5%,
COc1ccc(/C=C\c2cc(OC)c(OC)c(OC)c2)cc1O [COMBRETASTATIN A4],,,8.52,,
COc1cc(/C=C\c2ccc3ccccc3c2)cc(OC)c1OC [NAPHTHYLCOMBRETASTATIN],7.70,7.70,7.70,,
COc1ccc(C(OC(C)=O)c2ccc3ccccc3c2)c(OC)c1OC (centres undefined),< 5.00,5.57,< 5.00,26%,
COc1cc(C(=O)c2ccc3ccccc3c2)cc(OC)c1OC,6.60,7.38,,,100%
COc1cc(C(O)c2ccc3ccccc3c2)cc(OC)c1OC (centres undefined),,,,,0%
COc1ccc(C(O)c2ccc3ccccc3c2)c(OC)c1OC (centres undefined),< 5.00,< 5.00,< 5.00,0%,
